Laboratory results as given in publication PMC6382874, “Succinylation-dependent mitochondrial translocation of PKM2 promotes cell survival in response to nutritional stress” (Cell Death & Disease, 2019).
Read-outs that look alike come from different tables or passages of the source.

Key:
[1] = system: HCT116 xenografts; test: HCT116 xenograft tumor growth in nude mice; type: in vivo, nude mice (BALB/C); conditions: 15mg/kg, intraperitoneal, once every two days
Description: All animal procedures were performed in accordance with guidelines approved by the Animal Experimentation Ethics Committee of Peking University. Female nude mice (BALB/C, 4–6 weeks old) were injected with 2.0 × 10^6 HCT116 cells subcutaneously in the armpit. Approximately, 10 days later, pairs of mice (N = 7) were injected with compound 8 or vehicle control. Intraperitoneal injection was performed in the mouse. The animals were injected once every two days. Tumor measurements were performed once every 2 days. Tumor volume was calculated using the following equation: V = L(S2)π/6, where L is the longer and S is the shorter of the two tumor dimensions.

[2] = biological target: T1, PKM2 (Homo sapiens, UniProt P14618); test: binding to PKM2 measured by MicroCal iTC200; parameters: His-tag (N); made in house; host or cells: Escherichia coli BL21
Excerpt: We tested modifications of target compounds for PKM2 inhibitory activity.
Fig. 5 Identification and characterization of PKM2 inhibitors. a PKM2 inhibitors. […] It prints only the data set name 'Data: pkm2_NDH', so the substance label is left empty. / Panel b, N: small print, 0.941 ±0.0712, digits uncertain / Panel b, K: small print, 8.63E4 ±3.63E4, the digits 8, 6 and 3 are uncertain / Panel b, ΔH: small print, -5962 ±675.9, the digits 5, 9 and 6 are uncertain / Panel b, ΔS: small print, 2.59, the digits 5 and 9 are uncertain
(§1) Human cDNA for PKM2, PKM1, and VDAC3 were separately cloned into a pET28a (+) and pGEX-4T-1 vector with an N-terminal His-tag and N-terminal GST-tag and purified from the Escherichia coli strain BL21 (Invitrogen) using Ni–agarose beads and GST agarose beads (Qiagen) as described previously. PKL was purchased from Sino Biological Inc. in China.
Target sequence in this assay (P14618 whole entry): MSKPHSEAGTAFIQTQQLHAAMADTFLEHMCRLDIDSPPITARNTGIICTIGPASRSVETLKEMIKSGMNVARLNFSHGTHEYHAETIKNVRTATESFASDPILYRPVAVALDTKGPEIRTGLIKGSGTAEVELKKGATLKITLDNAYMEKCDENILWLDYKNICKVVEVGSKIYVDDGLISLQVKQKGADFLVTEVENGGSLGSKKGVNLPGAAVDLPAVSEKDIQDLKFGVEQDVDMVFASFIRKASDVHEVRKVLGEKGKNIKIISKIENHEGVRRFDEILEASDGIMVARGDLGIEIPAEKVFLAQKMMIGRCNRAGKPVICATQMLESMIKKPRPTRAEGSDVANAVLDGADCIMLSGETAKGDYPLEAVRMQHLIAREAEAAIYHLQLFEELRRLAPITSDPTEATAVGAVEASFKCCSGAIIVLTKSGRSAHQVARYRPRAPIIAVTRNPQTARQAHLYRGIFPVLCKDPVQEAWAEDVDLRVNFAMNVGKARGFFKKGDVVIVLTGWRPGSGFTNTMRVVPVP

[3] = system: HCT116 cells; test: cell viability test, HCT116; type: cell-based, human; conditions: cell viability, 48 h, read-out: IC50 (HCT116)
Description: (§2) We assessed the anti-tumor effects of compound 8 by evaluation of cancer cell viability. Compound 8 reduced cell viability with an IC50 of about 5 µM in MTT reduction assays in HCT116, MCF7, and H1299 cells (Table 2). […] To determine whether cancer cell death brought about by compound 8 is PKM2 dependent, PKM2 was knocked down in HCT116 cells using two different shRNA sequences that specifically targeted exon 10 without interfering with PKM1 expression. Compound 8 is an inhibitor which causes a loss of function of PKM2. If PKM2 is a specially targeted by compound 8, its knockdown should render cells more vulnerable to compound 8-mediated PKM2 inhibition since shRNA and compound 8 work synergistically by reducing the intracellular drug target concentration.
(§3) Cells were seeded in 96-well plates at 5000 cells/well in DMEM media overnight. Cells were treated with different concentrations of test compound for 48 h at 37 °C in 5% CO2. Cell viability was assayed with the MTS assay (Promega) and trypan blue staining according to the manufacturer’s instructions.

[4] = biological target: T2, PKL (Homo sapiens, UniProt P30613); test: fluorescent PK-LDH coupled assay, PKL; type: biochemical; conditions: PK-LDH coupled assay; read-out: IC50 (PKL)
T2 construct: purchased Sino Biological Inc
Description: as §1
(§4) Pyruvate kinase activity was measured with a fluorescent pyruvate kinase–lactate dehydrogenase coupled assay as described previously. All compounds were tested in a kinetic mode by coupling the generation of pyruvate by pyruvate kinase to the depletion of NADH through lactate dehydrogenase. For PKM2, 40 μL of buffer (50 mM Tris–HCl, pH 7.5, 10 mM KCl, 5 mM MgCl2), 1 μL of compound and 5 μL of enzyme solution were dispensed into Corning black solid 96-well plates and incubated for 15 min. Totally, 55 μL of substrate mix (final concentration, 0.5 mM PEP, 4.0 mM ADP, 0.12 mM NADH, 0.25 mM FBP, and 1 unit LDH) were then added, and the plates were placed in a FlexStation3 (Molecular Devices), followed by determination of NADH fluorescence at 30 s exposure intervals for 3–6 min. Data were collected on a FlexStation3.

[5] = biological target: T1, PKM2; test: pyruvate kinase activity in lysate of treated HCT116 cells; type: cell-based; parameters: endogenous in cells; host or cells: HCT116; conditions: 6 h treatment, Fig. 5c
Description: HCT116 cells were seeded overnight into 6-well plates at 1,000,000 cells/well in DMEM media. Test compounds were added for 6 h. Cells were washed two times with ice-cold phosphate-buffered saline (PBS) and lysed in lysis buffer. Lysate was analyzed for pyruvate kinase activity as described above.
Target sequence in this assay (P14618 2-531 limits assumed): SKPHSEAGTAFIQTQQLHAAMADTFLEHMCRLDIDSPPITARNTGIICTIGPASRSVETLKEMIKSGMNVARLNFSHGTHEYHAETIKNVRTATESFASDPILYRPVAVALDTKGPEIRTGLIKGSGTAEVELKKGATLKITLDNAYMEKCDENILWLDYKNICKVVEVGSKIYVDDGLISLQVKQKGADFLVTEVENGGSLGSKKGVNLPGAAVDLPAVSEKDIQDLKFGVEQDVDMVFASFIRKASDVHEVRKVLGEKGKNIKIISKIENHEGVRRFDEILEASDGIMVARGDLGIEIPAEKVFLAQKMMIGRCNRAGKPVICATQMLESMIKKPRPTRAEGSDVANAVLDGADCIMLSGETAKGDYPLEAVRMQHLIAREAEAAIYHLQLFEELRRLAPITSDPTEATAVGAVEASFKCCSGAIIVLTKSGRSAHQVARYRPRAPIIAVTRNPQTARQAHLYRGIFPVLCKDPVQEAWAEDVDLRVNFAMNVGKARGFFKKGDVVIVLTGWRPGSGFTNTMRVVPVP

[6] = system: HCT116 cells; test: ATP measurement, Cell Titer-Glo, HCT116 cells; type: cell-based, human; conditions: 10 or 20 μM, 8 h
Description: HCT116 cells were cultured in DMEM containing 10% FBS and seeded into six-well plates. Twenty-four hour after seeding, the medium was changed to DMEM containing 10 or 20 μM compound 8 for 8 h. ATP levels were measured using the Cell Titer-Glo Luminescent Cell Viability Assay (Promega).

[7] = biological target: T1, PKM2; test: fluorescent pyruvate kinase-lactate dehydrogenase (PK-LDH) coupled assay, PKM2; type: biochemical; parameters: His-tag (N); made in house; host or cells: Escherichia coli BL21; conditions: for selectivity for PKM2 over PKM1 and PKL: Supplementary Figure S4c
Description: A random screening of an in-house small molecule library (~1000 total molecules) was undertaken to identify new PKM2 modulators, which can block the interaction of PKM2 and VDAC3. The activity of these test compounds was assessed with a fluorescent PK-LDH coupled assay by a previously reported method (Supplementary Figure S4a)[37]. […] We undertook structural optimization by chemical modification. We designed new compounds utilizing a methyl group instead of the NP-1 chlorine moiety. Synthesis of target compounds was carried out according to the six-step protocol outlined in Supplementary Figure S4d, which was based on a previously described procedure[39],[40].
as §1, §4
Target sequence in this assay (P14618 whole entry): as the sequence (P14618 whole entry) above

[8] = system: MCF7 cells; test: cell viability test, MCF7; type: cell-based; conditions: cell viability, 48 h, read-out: IC50 (MCF7)
Description: as §2, §3

T2 sequence (P30613 1-543 isoform P30613-2, species assumed): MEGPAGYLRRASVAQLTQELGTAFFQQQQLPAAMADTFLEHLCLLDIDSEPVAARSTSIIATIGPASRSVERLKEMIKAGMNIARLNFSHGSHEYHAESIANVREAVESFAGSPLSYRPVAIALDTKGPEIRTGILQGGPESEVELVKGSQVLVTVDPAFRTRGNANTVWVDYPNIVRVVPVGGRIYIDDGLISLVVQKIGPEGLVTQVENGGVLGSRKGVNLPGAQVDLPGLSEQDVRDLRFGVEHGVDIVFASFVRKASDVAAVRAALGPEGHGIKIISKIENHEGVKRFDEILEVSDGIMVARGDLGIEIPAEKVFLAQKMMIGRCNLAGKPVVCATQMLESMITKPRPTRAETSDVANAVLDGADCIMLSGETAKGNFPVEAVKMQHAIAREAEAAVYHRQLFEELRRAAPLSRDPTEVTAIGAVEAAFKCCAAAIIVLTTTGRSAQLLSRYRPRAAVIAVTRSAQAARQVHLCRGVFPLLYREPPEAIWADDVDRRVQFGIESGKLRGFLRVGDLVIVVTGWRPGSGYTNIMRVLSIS

With `CCCN(CCC)P(N)(=O)OCC1=CC(=O)c2ccccc2C1=O` (centres unmarked) [Compound 8] the “colon cancer xenograft growth (tumor volume)” value [1] was “significantly reduced”, the Kd [2] was ~11 µM and the IC50 ([3]; Homo sapiens, HCT-116, 48 h) was ~5 µM. The IC50 [3] was 5.19 ± 1.74 µM, the IC50 [4] was 20.4 ± 3.54 µM and the “inhibition of PKM2 activity in cancer cells” value [5] was “inhibits PKM2 activity in HCT116 cells in a dose dependent manner”. The “inhibition of PKM2 activity in cancer cells” value ([5]; listed as compound 8) was “dose dependent”, the “cellular ATP production” value [6] was “inhibited cellular ATP production in a concentration-dependent manner” and the “selectivity for PKM2 over PKM1 and PKL” value [7] was “markedly inhibited PKM2, but inhibited PKM1 and PKL to much smaller extent”. The “selectivity for PKM2 over PKM1 and PKL” value ([7]; listed as compound 8) was “PKM2 inhibitor of high selectivity”, the “IC50 on PKM2 relative to NP-1” value ([7]; ratio of IC50 values of Table 1) was “about threefold lower than that of NP-1” and the IC50 ([7]; recombinant enzyme, PK-LDH coupled assay, 15 min preincubation, read-out: IC50 (PKM2)) was 0.77 ± 0.3 µM. It also gave an IC50 ([8]; Homo sapiens, MCF7, 48 h) of ~5 µM and an IC50 [8] of 5.4 ± 1.14 µM.
